According to patent US20260297060A1, “COMPOUNDS FOR THE DEGRADATION OF MUTANT BRAF” (C4 THERAPEUTICS, INC., priority 2023, published 2026):

Test system: A375-NRAS^Q61K cells
Test: CTGlo Cell Viability Assay, A375-NRAS^Q61K (A375.11) cells, 96 hours
Format: cell-based, human
Conditions: A375.11 (A375-NRAS^Q61K) cells
How it was run: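 Viability as CellTiter-Glo ATP luminescence after 96 h compound exposure at 37 °C; A375.11 (BRAF V600E/NRAS Q61K) cells at 250/well, top final concentration 10 μM in half-log steps. Signal was background-corrected and set relative to DMSO controls. A 4-parameter logistic fit gave GI50 (50% crossing) and Emax.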

[1] = Homo sapiens, 96 h, lowest % viability achieved

Row | SMILES | GI50 (Homo sapiens, 96 h) | Emax [1] | GI50 | CTGlo A375.11 96 hours Emax (lowest % viability achieved)
1 | CCN(C)S(=O)(=O)Nc1ccc(F)c(Oc2ccc3ncn([C@H]4COC5(CCN(C6CCC(c7ccc(N[C@H]8CCC(=O)NC8=O)cc7F)CC6)CC5)C4)c(=O)c3c2)c1C#N (single isomer, unassigned) [Compound 3] | < 1 µM | < 50% | – | –
2 | CCN(C)S(=O)(=O)Nc1ccc(F)c(Oc2ccc3ncn([C@H]4COC5(CCN(C6CCC(c7ccc(N[C@@H]8CCC(=O)NC8=O)cc7F)CC6)CC5)C4)c(=O)c3c2)c1C#N (single isomer, unassigned) [Compound 4] | < 1 µM | < 50% | – | –
3 | CCN(C)S(=O)(=O)Nc1ccc(F)c(Oc2ccc3ncn(C4CC5(CCN(C6CCC(c7ccc(NC8CCC(=O)NC8=O)cc7F)CC6)CC5)C4)c(=O)c3c2)c1C#N (single isomer, unassigned) [Compound 6, 6-[2-cyano-3-[[ethyl(methyl)sulfamoyl]amino]-6-fluoro-phenoxy]-3-[7-[4-[4-[(2,6-dioxo-3-piperidyl)amino]-2-fluoro-phenyl]cyclohexyl]-7-azaspiro[3.5]nonan-2-yl]-4-oxo-quinazoline] | < 1 µM | < 50% | – | –
4 | CCN(C)S(=O)(=O)Nc1ccc(F)c(Oc2ccc3ncn(C4CC5(CCN(C6CCC(c7cc8c(cc7F)c(N7CCC(=O)NC7=O)nn8C)CC6)CC5)C4)c(=O)c3c2)c1C#N (single isomer, unassigned) [Compound 8, 6-[2-cyano-3-[[ethyl(methyl)sulfamoyl]amino]-6-fluoro-phenoxy]-3-[7-[4-[3-(2,4-dioxohexahydropyrimidin-1-yl)-5-fluoro-1-methyl-indazol-6-yl]cyclohexyl]-7-azaspiro[3.5]nonan-2-yl]-4-oxo-quinazoline] | < 1 µM | < 50% | – | –
5 | CCN(C)S(=O)(=O)Nc1ccc(F)c(Oc2ccc3ncn([C@@H]4C[C@@H]5CN(C6CCC(c7ccc(NC8CCC(=O)NC8=O)cc7F)CC6)C[C@@H]5C4)c(=O)c3c2)c1C#N (single isomer, unassigned) [Compound 21] | 1 to 10 µM | 50 to 90% | – | –
6 | CCN(C)S(=O)(=O)Nc1ccc(F)c(Oc2ccc3ncn([C@H]4CCC5(CCN(C6CCC(c7ccc(NC8CCC(=O)NC8=O)cc7F)CC6)CC5)C4)c(=O)c3c2)c1C#N (single isomer, unassigned) [Compound 24] | < 1 µM | < 50% | – | –
7 | CCN(C)S(=O)(=O)Nc1ccc(F)c(Oc2ccc3ncn([C@H]4COC5(CCN(C6CCC(c7cc8c(cc7F)c(N7CCC(=O)NC7=O)nn8C)CC6F)CC5)C4)c(=O)c3c2)c1C#N (single isomer, unassigned) [Compound 28] | < 1 µM | < 50% | – | –
8 | CCN(C)S(=O)(=O)Nc1ccc(F)c(Oc2ccc3ncn([C@@H]4CCC5(CCN(C6CCC(c7cc8c(cc7F)c(N7CCC(=O)NC7=O)nn8C)CC6)CC5)C4)c(=O)c3c2)c1C#N (single isomer, unassigned) [Compound 31] | 1 to 10 µM | < 50% | – | –
9 | CCN(C)S(=O)(=O)Nc1ccc(F)c(Oc2ccc3ncn([C@H]4CCC5(CCN(C6CCC(c7cc8c(cc7F)c(N7CCC(=O)NC7=O)nn8C)CC6)CC5)C4)c(=O)c3c2)c1C#N (single isomer, unassigned) [Compound 33] | < 1 µM | < 50% | – | –
10 | CCN(C)S(=O)(=O)Nc1ccc(F)c(Oc2ccc3ncn([C@H]4COC5(CCC(N6CCC(c7cc8c(cc7F)c(N7CCC(=O)NC7=O)nn8C)C(F)(F)C6)CC5)C4)c(=O)c3c2)c1C#N (single isomer, unassigned) [Compound 38] | < 1 µM | < 50% | – | –
11 | CCN(C)S(=O)(=O)Nc1ccc(F)c(Oc2ccc3ncn([C@H]4COC5(CCC(N6CCC(c7cc8c(cc7F)c(N7CCC(=O)NC7=O)nn8C)C(F)(F)C6)CC5)C4)c(=O)c3c2)c1C#N (single isomer, unassigned) [Compound 39] | – | – | < 1 µM | *** (<=50%)
12 | CCN(C)S(=O)(=O)Nc1ccc(F)c(Oc2ccc3ncn([C@H]4COC5(CCN(C6CCC(c7cc8c(cc7F)c(N7CCC(=O)NC7=O)nn8C)CC6)CC5)C4)c(=O)c3c2F)c1C#N (single isomer, unassigned) [Compound 41] | < 1 µM | < 50% | – | –
